Test results taken from patent US9765092B2, “Tricyclic piperidine compounds” (ACTELION PHARMACEUTICALS LTD, priority 2013, dated 2017).

These compounds were tested against human TPH1 (Homo sapiens (Human), UniProt P17752) (assay: Biochemical in vitro assay using fluorescence readout (TPH1 inhibition)). Conditions: not given.
human TPH1, sequence (P17752 whole entry): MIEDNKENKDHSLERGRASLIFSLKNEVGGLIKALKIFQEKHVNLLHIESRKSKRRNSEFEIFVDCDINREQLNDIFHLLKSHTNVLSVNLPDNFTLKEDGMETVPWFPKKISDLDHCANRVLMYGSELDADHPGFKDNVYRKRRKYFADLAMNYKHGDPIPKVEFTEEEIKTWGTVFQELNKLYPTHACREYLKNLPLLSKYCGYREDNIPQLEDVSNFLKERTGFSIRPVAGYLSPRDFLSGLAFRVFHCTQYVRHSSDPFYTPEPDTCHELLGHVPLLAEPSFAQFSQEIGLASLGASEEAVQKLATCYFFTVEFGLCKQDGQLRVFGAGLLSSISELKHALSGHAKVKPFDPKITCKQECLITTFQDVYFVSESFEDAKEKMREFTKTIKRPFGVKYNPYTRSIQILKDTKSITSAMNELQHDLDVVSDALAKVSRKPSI

Structure (SMILES)	IC50 [nM]
Cc1nn2c3c(nc2s1)CCN(C(=O)COc1ccc(NS(C)(=O)=O)nc1Cl)C3c1ncccc1F (stereo not drawn) [Example 1.35.4, N-(6-chloro-5-(2-(5-(3-fluoropyridin-2-yl)-2-methyl-7,8-dihydro-[1,3,4]thiadiazolo[2′,3′:2,3]imidazo[4,5-c]pyridine-6(5H)-yl)-2-oxoethoxy)pyridin-2-l)methanesulfonamide]	35

Same assay, conditions: full length human TPH1, 40 μM L-tryptophan, 15° C., 60 minutes, fluorescence at 540 nm; mean if determined several times

Structure (SMILES)	IC50 [nM]
CONC(=O)c1ccc(OCC(=O)N2CCc3nc4sc(C)nn4c3C2c2ccc(Cl)cc2F)c(Cl)n1 (stereo not drawn) [Example 1.4.41, 6-Chloro-5-(2-(5-(4-chloro-2-fluorophenyl)-2-methyl-7,8-dihydro-[1,3,4]thiadiazolo[2′,3′:2,3]imidazo[4,5-c]pyridin-6(5H)-yl)-2-oxoethoxy)-N-methoxypicolinamide]	6
Cc1nn2c3c(nc2s1)CCN(C(=O)COc1ccc(C(=O)NCC#N)nc1Cl)C3c1ccc(Cl)cc1F (stereo not drawn) [Example 1.4.23, 6-Chloro-5-(2-(5-(4-chloro-2-fluorophenyl)-2-methyl-7,8-dihydro-[1,3,4]thiadiazolo[2′,3′:2,3]imidazo[4,5-c]pyridin-6(5H)-yl)-2-oxoethoxy)-N-(cyano-methyl)picolinamide]	247
Cc1nn2c3c(nc2s1)CCN(C(=O)COc1ccc(N2CCOCC2)nc1Cl)C3c1cnc(N2CC(F)(F)C2)s1 (stereo not drawn) [Example 1.49.1, 2-((2-Chloro-6-morpholinopyridin-3-yl)oxy)-1-(5-(2-(3,3-difluoro-azetidin-1-yl)thiazol-5-yl)-2-methyl-7,8-dihydro-[1,3,4]thiadiazolo[2′,3′:2,3]imidazo[4,5-c]pyridin-6(5H)-yl)-ethanone]	15

Same assay, conditions: human TPH1, fluorescence readout

Structure (SMILES)	IC50 [nM]
Cc1nn2c3c(nc2s1)CCN(C(=O)COc1ccc(N2CC(F)(F)C2)nc1Cl)C3c1sc(C(=O)N(C)C)cc1F (stereo not drawn) [Example 1.24.6, 5-(6-(2-((2-chloro-6-(3,3-difluoroazetidin-1-yl)pyridin-3-yl)oxy)acetyl)-2-methyl-5,6,7,8-tetrahydro-[1,3,4]thiadiazolo [2′,3′:2,3]imidazo[4,5-c]pyridin-5-yl)-4-fluoro-N,N-dimethylthiophene-2-carboxamide]	5
Cc1nn2c3c(nc2s1)CCN(C(=O)COc1ccc(C(F)(F)F)cc1Cl)C3c1sccc1F (stereo not drawn) [Example 1.23.5, 2-(2-chloro-4-(trifluoromethyl)phenoxy)-1-(5-(3-fluorothiophen-2-yl)-2-methyl-7,8-dihydro-[1,3,4]thiadiazolo[2′,3′:2,3]imidazo[4,5-c]pyridin-6(5H)-yl)ethanone]	9
CCc1nc(C)ccc1OCC(=O)N1CCc2nc3sc(C)nn3c2C1c1cnc(C2CC2)nc1C (stereo not drawn) [Example 1.10.3, 1-(5-(2-cyclopropyl-4-methylpyrimidin-5-yl)-2-methyl-7,8-dihydro-[1,3,4]thiadiazolo[2′,3′:2,3]imidazo[4,5-c]pyridin-6(5H)-yl)-2-((2-ethyl-6-methylpyridin-3-yl)oxy)ethanone]	38
Cc1cc(Cl)ccc1OCC(=O)N1CCc2nc3sccn3c2C1c1c(C)nn(C)c1C (stereo not drawn) [Example 6.15.3, 2-(4-chloro-2-methylphenoxy)-1-(5-(1,3,5-trimethyl-1H-pyrazol-4-yl)-7,8-dihydrothiazolo[2′,3′:2,3]imidazo[4,5-c]pyridin-6(5H)-yl)ethanone]	20
Cc1nn2c3c(nc2s1)CCN(C(=O)COc1ccc(I)nc1Cl)C3c1ccc(Cl)cc1F (stereo not drawn) [Example 1.4.10, 1-(5-(4-chloro-2-fluorophenyl)-2-methyl-7,8-dihydro-[1,3,4]thiadiazolo[2′,3′:2,3]imidazo[4,5-c]pyridin-6(5H)-yl)-2-((2-chloro-6-iodopyridin-3-yl)oxy)ethanone]	8
CCc1ncccc1OCC(=O)N1CCc2nc3sccn3c2C1c1ccc(Cl)cc1F (stereo not drawn) [Example 6.4.7, 1-(5-(4-chloro-2-fluorophenyl)-7,8-dihydrothiazolo-[2′,3′:2,3]imidazo[4,5-c]pyridin-6(5H)-yl)-2-((2-ethylpyridin-3-yl)oxy)ethanone]	6
CCc1cc(F)ccc1OCC(=O)N1CCc2nc3sccn3c2C1c1ccc(OC)cc1F (stereo not drawn) [Example 6.3.4, 2-(2-ethyl-4-fluorophenoxy)-1-(5-(2-fluoro-4-methoxyphenyl)-7,8-dihydrothiazolo[2′,3′:2,3]-imidazo[4,5-c]pyridin-6(5H)-yl)ethanone]	8
Cc1nn2c3c(nc2s1)CCN(C(=O)COc1ccc(Cl)cc1C)C3c1nc(-c2ccccc2)no1 (stereo not drawn) [Example 1.11.1, 2-(4-chloro-2-methylphenoxy)-1-(2-methyl-5-(3-phenyl-1,2,4-oxadiazol-5-yl)-7,8-dihydro-[1,3,4]thiadiazolo [2′,3′:2,3]imidazo[4,5-c]pyridin-6(5H)-yl)ethanone]	35
Cc1nn2c3c(nc2s1)CCN(C(=O)COc1ccc(NS(C)(=O)=O)nc1Cl)C3c1sc(C(=O)N(C)C)cc1F (stereo not drawn) [Example 1.24.9, 5-(6-(2-((2-chloro-6-(methylsulfonamido)pyridin-3-yl)oxy)acetyl)-2-methyl-5,6,7,8-tetrahydro-[1,3,4]thiadiazolo [2′,3′:2,3]imidazo[4,5-c]pyridin-5-yl)-4-fluoro-N,N-dimethylthiophene-2-carboxamide]	6
CCc1nc(C)ccc1OCC(=O)N1CCc2nc3sc(C)nn3c2C1c1ccc(Cl)cc1F (stereo not drawn) [Example 1.4.2, 1-(5-(4-chloro-2-fluorophenyl)-2-methyl-7,8-dihydro-[1,3,4]thiadiazolo[2′,3′:2,3]imidazo[4,5-c]pyridin-6(5H)-yl)-2-((2-ethyl-6-methylpyridin-3-yl)oxy)ethanone]	13
Cc1nn2c3c(nc2s1)CCN(C(=O)COc1ccnc2c(C)c(Cl)ccc12)C3c1ccc(Cl)cc1F (stereo not drawn) [Example 1.4.64, 1-(5-(4-chloro-2-fluorophenyl)-2-methyl-7,8-dihydro-[1,3,4]thiadiazolo[2′,3′:2,3]imidazo[4,5-c]pyridin-6(5H)-yl)-2-((7-chloro-8-methylquinolin-4-yl)oxy)ethan-1-one]	255
CCc1nc(N2CCCS2(=O)=O)ccc1OCC(=O)N1CCc2nc3sc(C(F)F)nn3c2C1c1ccc(Cl)cc1F (stereo not drawn) [Example 8.1.3, 1-(5-(4-chloro-2-fluorophenyl)-2-(difluoromethyl)-7,8-dihydro-[1,3,4]thiadiazolo[2′,3′:2,3]imidazo[4,5-c]pyridin-6(5H)-yl)-2-((6-(1,1-dioxidoisothiazolidin-2-yl)-2-ethylpyridin-3-yl)oxy)ethanone]	7
CNC(=O)c1cc(F)c(C2c3c(nc4sc(C)nn34)CCN2C(=O)COc2ccc(C(=O)N(C)C)nc2Cl)s1 (stereo not drawn) [Example 1.25.4, 6-chloro-5-(2-(5-(3-fluoro-5-(methylcarbamoyl)thiophen-2-yl)-2-methyl-7,8-dihydro-[1,3,4]thiadiazolo[2′,3′:2,3]imidazo[4,5-c]pyridin-6(5H)-yl)-2-oxoethoxy)-N,N-dimethylpicolinamide]	6
Cc1nn2c3c(nc2s1)CCN(C(=O)COc1ccc(C(F)(F)F)cc1Cl)C3c1ccc(Cl)nc1F (stereo not drawn) [Example 1.16.7, 1-(5-(6-chloro-2-fluoropyridin-3-yl)-2-methyl-7,8-dihydro-[1,3,4]thiadiazolo[2′,3′:2,3]imidazo[4,5-c]pyridin-6(5H)-yl)-2-(2-chloro-4-(trifluoromethyl)phenoxy)ethanone]	5
